Legend:
Test in all cases: Kinase selectivity profiling
Type in all cases: biochemical
IKKe = IKKe (Homo sapiens, UniProt Q14164); details: 1 µM, assay duplicates
Protocol: (§1) [20] Kinase selectivity profiling for compounds 7a, 7d, 14d and 14g was carried out at the International Centre for Protein Kinase Profiling, Division of Signal Transduction Therapy, University of Dundee.
(§2) Table S1: Kinase selectivity profiling of compounds 7a and 7d in a 102-kinase panel screened at a concentration of 1 µM.
(§3) Table S2: Kinase selectivity profiling of compounds 14d and 14g in a 105-kinase panel screened at a concentration of 1 µM.

MARK3 = MARK3 (Homo sapiens, UniProt P27448); details: 1 µM, assay duplicates
Protocol: as §1, §2, §3

PAK2 = PAK2 (Homo sapiens, UniProt Q13177); details: 1 µM, assay duplicates
Protocol: as §1, §2, §3

MST4 = MST4 (Homo sapiens, UniProt Q9P289); details: 1 µM, assay duplicates
Protocol: as §1, §2, §3

PRK2 = PRK2 (Homo sapiens, UniProt Q16513); details: 1 µM, assay duplicates
Protocol: as §1, §2, §3

MARK4 = MARK4 (Homo sapiens, UniProt Q96L34); details: 1 µM, assay duplicates
Protocol: as §1, §2, §3

PIM2 = PIM2 (Homo sapiens, UniProt Q9P1W9); details: 1 µM, assay duplicates
Protocol: as §1, §2, §3

MLK3 = MLK3 (Homo sapiens, UniProt Q16584); details: 1 µM, assay duplicates
Protocol: as §1, §2, §3

DYRK2 = DYRK2 (Homo sapiens, UniProt Q92630); details: 1 µM, assay duplicates
Protocol: as §1, §2, §3

TAK1 = TAK1 (Homo sapiens, UniProt O43318); details: 1 µM, assay duplicates
Protocol: as §1, §2, §3

EF2K = EF2K (Homo sapiens, UniProt O00418); details: 1 µM, assay duplicates
Protocol: as §1, §2, §3

ROCK 2 = ROCK 2 (Homo sapiens, UniProt O75116); details: 1 µM, assay duplicates
Protocol: as §1, §2, §3

Lck = Lck (Homo sapiens, UniProt P06239); details: 1 µM, assay duplicates
Protocol: as §1, §2, §3

NUAK1 = NUAK1 (Homo sapiens, UniProt O60285); details: 1 µM, assay duplicates
Protocol: as §1, §2, §3

MAPKAP-K2 = MAPKAP-K2 (Homo sapiens, UniProt P49137); details: 1 µM, assay duplicates
Protocol: as §1, §2, §3

MST2 = MST2 (Homo sapiens, UniProt Q13188); details: 1 µM, assay duplicates
Protocol: as §1, §2, §3

CDK2-Cyclin A = CDK2-Cyclin A (Homo sapiens, UniProt P24941); details: 1 µM, assay duplicates
Protocol: as §1, §2, §3

MKK1 = MKK1 (Homo sapiens, UniProt Q02750); details: 1 µM, assay duplicates
Protocol: as §1, §2, §3

CAMK1 = CAMK1 (Homo sapiens, UniProt Q14012); details: 1 µM, assay duplicates
Protocol: as §1, §2, §3

PIM1 = PIM1 (Homo sapiens, UniProt P11309); details: 1 µM, assay duplicates
Protocol: as §1, §2, §3

CK1 = CK1 (Homo sapiens, UniProt P48730); details: 1 µM, assay duplicates
Protocol: as §1, §2, §3

IGF-1R = IGF-1R (Homo sapiens, UniProt P08069); details: 1 µM, assay duplicates
Protocol: as §1, §2, §3

YES1 = YES1 (Homo sapiens, UniProt P07947); details: 1 µM, assay duplicates
Protocol: as §1, §2, §3

ERK8 = target: T1, ERK8 (Homo sapiens, UniProt Q8TD08); details: for ERK8 inhibition: 1 μM; for ERK8 % activity remaining: 1 µM, assay duplicates
T1 sequence (Q8TD08 1-544): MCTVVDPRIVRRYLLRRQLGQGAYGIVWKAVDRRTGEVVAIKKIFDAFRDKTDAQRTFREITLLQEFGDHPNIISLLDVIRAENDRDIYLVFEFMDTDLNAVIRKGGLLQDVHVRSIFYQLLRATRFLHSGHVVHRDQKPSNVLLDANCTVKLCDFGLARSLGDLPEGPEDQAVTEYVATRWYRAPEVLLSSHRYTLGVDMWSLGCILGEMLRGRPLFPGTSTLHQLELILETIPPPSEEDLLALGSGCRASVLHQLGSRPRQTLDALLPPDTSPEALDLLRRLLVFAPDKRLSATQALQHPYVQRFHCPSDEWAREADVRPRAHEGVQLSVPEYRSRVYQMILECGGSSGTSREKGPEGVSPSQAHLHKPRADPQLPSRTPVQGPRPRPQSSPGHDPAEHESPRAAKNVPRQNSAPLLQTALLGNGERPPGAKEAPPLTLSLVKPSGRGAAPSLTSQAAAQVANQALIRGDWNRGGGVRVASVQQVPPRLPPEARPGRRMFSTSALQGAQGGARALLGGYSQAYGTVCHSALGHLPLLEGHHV
Protocol: as §1, §2, §3

MLK1 = MLK1 (Homo sapiens, UniProt P80192); details: for MLK1 inhibition: 1 μM; for MLK1 % activity remaining: 1 µM, assay duplicates
Protocol: as §1, §2, §3

IRR = IRR (Homo sapiens, UniProt P14616); details: 1 µM, assay duplicates
Protocol: as §1, §2, §3

PDK1 = PDK1 (Homo sapiens, UniProt O15530); details: 1 µM, assay duplicates
Protocol: as §1, §2, §3

p38b MAPK = p38b MAPK (Homo sapiens, UniProt Q15759); details: 1 µM, assay duplicates
Protocol: as §1, §2, §3

PKD1 = PKD1 (Homo sapiens, UniProt Q15139); details: 1 µM, assay duplicates
Protocol: as §1, §2, §3

PAK4 = PAK4 (Homo sapiens, UniProt O96013); details: 1 µM, assay duplicates
Protocol: as §1, §2, §3

SYK = SYK (Homo sapiens, UniProt P43405); details: 1 µM, assay duplicates
Protocol: as §1, §2, §3

IRAK4 = IRAK4 (Homo sapiens, UniProt Q9NWZ3); details: 1 µM, assay duplicates
Protocol: as §1, §2, §3

JNK3 = JNK3 (Homo sapiens, UniProt P53779); details: 1 µM, assay duplicates
Protocol: as §1, §2, §3

MNK1 = MNK1 (Homo sapiens, UniProt Q9BUB5); details: 1 µM, assay duplicates
Protocol: as §1, §2, §3

RSK1 = RSK1 (Homo sapiens, UniProt Q15418); details: 1 µM, assay duplicates
Protocol: as §1, §2, §3

Sequence of MLK1 (P80192 whole entry): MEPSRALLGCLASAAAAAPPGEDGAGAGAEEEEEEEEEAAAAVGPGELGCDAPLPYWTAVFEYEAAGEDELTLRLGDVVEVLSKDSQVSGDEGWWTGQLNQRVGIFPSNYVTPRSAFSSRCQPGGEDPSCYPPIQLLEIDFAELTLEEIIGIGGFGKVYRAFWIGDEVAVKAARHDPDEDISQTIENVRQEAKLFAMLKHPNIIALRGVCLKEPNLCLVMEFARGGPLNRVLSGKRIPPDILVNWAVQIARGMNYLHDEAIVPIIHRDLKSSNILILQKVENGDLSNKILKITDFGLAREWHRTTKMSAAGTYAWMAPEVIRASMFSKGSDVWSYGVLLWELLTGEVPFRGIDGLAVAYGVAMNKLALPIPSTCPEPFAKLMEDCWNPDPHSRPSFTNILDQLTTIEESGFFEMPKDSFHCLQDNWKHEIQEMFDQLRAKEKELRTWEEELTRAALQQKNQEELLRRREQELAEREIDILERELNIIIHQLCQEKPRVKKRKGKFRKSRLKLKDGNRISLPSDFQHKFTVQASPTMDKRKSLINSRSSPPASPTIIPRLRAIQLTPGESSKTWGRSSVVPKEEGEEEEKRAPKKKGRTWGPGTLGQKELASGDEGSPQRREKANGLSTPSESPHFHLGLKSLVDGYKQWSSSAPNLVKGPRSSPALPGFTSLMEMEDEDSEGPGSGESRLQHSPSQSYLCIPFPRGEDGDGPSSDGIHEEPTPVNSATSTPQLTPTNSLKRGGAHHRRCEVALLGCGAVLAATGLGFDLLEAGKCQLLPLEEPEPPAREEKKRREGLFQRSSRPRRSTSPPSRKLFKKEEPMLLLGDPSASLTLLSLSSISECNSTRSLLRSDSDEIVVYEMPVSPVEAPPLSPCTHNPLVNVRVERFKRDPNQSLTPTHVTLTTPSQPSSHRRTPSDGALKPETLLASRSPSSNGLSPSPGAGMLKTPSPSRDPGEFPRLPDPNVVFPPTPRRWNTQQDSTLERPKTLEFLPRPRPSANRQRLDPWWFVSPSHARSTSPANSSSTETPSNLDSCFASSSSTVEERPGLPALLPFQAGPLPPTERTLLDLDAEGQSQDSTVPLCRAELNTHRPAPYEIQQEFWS
Sequence of MKK1 (Q02750 whole entry): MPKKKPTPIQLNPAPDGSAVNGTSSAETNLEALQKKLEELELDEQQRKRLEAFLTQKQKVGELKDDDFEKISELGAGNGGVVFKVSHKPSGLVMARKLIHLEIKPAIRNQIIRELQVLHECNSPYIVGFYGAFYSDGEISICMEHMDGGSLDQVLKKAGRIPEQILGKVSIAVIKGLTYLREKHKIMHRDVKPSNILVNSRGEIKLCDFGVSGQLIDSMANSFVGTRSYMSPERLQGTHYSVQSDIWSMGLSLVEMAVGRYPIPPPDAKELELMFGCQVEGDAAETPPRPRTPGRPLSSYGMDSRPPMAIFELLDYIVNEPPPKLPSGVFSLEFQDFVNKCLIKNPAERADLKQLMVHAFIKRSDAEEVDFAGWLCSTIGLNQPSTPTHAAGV
Sequence of MAPKAP-K2 (P49137 whole entry): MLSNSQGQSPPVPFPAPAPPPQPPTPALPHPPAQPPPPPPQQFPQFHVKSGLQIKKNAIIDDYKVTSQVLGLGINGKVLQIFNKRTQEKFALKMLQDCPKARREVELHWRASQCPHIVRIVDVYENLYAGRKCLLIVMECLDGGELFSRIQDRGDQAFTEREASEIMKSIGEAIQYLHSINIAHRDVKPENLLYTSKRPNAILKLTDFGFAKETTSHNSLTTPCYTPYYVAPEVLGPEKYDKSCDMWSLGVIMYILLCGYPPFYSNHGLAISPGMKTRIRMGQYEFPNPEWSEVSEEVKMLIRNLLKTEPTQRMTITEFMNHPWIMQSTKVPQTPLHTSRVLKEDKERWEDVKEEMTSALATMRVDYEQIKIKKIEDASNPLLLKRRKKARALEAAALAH
Sequence of MARK4 (Q96L34 whole entry): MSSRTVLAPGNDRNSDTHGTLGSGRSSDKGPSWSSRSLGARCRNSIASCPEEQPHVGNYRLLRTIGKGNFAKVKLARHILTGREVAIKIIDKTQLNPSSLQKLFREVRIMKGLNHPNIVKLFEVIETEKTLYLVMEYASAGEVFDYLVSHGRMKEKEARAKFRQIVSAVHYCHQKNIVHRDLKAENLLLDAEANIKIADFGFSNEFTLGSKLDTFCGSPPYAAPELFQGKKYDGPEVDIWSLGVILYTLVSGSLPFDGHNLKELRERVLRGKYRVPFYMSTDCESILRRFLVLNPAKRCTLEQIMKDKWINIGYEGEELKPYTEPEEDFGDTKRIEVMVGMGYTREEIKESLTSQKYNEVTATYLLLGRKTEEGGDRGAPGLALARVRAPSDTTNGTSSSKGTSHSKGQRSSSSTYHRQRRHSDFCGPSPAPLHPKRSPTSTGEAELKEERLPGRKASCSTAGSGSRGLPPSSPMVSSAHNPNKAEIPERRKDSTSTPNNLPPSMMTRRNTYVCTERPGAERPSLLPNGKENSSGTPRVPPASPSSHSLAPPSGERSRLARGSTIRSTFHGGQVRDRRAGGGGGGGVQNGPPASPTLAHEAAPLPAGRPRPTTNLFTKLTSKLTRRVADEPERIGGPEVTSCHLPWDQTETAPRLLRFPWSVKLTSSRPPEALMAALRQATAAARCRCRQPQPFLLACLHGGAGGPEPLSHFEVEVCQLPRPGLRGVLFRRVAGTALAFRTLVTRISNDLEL
Sequence of IKKe (Q14164 whole entry): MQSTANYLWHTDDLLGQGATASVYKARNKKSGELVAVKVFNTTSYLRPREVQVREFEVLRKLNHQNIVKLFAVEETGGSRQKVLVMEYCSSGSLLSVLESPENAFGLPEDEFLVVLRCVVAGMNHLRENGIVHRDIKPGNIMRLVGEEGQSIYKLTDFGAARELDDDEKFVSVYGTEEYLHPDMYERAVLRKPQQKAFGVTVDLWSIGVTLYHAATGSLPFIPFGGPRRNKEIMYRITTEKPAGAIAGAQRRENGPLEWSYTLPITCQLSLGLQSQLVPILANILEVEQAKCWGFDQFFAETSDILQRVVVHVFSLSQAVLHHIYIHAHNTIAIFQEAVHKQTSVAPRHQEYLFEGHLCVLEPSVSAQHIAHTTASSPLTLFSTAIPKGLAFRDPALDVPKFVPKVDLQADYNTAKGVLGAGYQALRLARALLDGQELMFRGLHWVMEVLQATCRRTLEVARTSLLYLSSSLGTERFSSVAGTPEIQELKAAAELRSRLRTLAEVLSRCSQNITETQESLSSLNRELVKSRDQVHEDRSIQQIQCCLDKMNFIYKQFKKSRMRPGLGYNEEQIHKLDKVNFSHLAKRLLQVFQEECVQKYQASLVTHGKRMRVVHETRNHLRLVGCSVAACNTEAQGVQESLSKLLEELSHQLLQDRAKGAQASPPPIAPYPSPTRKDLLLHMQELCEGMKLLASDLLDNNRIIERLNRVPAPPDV
Sequence of MARK3 (P27448 whole entry): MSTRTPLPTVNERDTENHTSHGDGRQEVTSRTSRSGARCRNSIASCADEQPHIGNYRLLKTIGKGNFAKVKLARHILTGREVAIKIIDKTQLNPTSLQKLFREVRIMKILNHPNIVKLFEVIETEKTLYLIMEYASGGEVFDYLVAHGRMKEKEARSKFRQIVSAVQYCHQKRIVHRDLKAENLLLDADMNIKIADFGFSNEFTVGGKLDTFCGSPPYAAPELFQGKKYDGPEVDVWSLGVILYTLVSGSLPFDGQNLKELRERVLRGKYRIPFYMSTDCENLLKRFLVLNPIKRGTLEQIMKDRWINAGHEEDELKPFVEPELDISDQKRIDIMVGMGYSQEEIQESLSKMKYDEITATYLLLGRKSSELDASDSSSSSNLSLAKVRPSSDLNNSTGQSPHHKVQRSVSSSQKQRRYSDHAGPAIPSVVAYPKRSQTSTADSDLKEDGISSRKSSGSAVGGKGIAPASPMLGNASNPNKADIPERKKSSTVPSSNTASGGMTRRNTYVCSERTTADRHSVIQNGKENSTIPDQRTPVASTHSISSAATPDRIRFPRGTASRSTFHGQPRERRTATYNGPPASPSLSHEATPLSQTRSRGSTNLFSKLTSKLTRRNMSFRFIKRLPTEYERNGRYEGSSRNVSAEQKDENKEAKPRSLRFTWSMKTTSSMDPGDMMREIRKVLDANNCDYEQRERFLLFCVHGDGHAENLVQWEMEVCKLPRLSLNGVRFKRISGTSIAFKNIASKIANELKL
Sequence of Lck (P06239 whole entry): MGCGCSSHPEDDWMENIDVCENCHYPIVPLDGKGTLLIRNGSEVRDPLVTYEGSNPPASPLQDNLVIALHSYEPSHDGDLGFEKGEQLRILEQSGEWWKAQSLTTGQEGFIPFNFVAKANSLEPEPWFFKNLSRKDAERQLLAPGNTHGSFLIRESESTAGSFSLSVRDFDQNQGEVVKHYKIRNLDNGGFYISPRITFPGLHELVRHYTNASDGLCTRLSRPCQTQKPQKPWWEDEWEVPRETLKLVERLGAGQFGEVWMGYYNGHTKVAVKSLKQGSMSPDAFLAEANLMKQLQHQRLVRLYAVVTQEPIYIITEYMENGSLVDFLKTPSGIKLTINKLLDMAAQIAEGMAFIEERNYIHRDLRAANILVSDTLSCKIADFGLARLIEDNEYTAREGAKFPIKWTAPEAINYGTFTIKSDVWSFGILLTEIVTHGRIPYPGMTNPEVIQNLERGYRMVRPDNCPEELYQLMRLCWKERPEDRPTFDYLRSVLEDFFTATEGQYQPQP
Sequence of CAMK1 (Q14012 whole entry): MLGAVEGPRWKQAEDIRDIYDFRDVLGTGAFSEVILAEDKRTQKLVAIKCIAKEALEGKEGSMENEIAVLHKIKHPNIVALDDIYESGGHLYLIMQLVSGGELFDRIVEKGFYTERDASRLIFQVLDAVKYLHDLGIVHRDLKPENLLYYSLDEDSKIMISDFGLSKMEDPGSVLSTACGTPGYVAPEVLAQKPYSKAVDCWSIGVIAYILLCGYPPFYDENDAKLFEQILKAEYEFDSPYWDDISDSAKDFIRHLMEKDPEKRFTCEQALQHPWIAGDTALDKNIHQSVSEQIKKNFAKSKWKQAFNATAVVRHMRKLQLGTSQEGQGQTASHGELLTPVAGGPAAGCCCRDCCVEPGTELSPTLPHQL

In the case of `Cc1nn(C)cc1-c1nc2c(-c3cnn(Cc4ccccc4)c3)c(Cl)cnc2[nH]1` [Compound 7a], the “IKKe % activity remaining” value (IKKe) is reported as 53%, the “MARK3 % activity remaining” value (MARK3) is reported as 20% and the “PAK2 % activity remaining” value (PAK2) is reported as 82%. For the same compound, the “MST4 % activity remaining” value (MST4) was 64%, the “PRK2 % activity remaining” value (PRK2) was 42% and the “MARK4 % activity remaining” value (MARK4) was 37%. For the same compound, the “PIM2 % activity remaining” value (PIM2) was 86%, the “MLK3 % activity remaining” value (MLK3) was 2% and the “DYRK2 % activity remaining” value (DYRK2) was 29%. The “TAK1 % activity remaining” value (TAK1) was 6%, the “EF2K % activity remaining” value (EF2K) was 94% and the “ROCK 2 % activity remaining” value (ROCK 2) was 36%. The “Lck % activity remaining” value (Lck) was 61%, the “NUAK1 % activity remaining” value (NUAK1) was 1% and the “MAPKAP-K2 % activity remaining” value (MAPKAP-K2) was 84%. For the same compound, the “MST2 % activity remaining” value (MST2) was 60%, the “CDK2-Cyclin A % activity remaining” value (CDK2-Cyclin A) was 1% and the “MKK1 % activity remaining” value (MKK1) was 28%. The “CAMK1 % activity remaining” value (CAMK1) was 87%, the “PIM1 % activity remaining” value (PIM1) was 71% and the “CK1 % activity remaining” value (CK1) was 63%. The “IGF-1R % activity remaining” value (IGF-1R) was 10%, the “YES1 % activity remaining” value (YES1) was 12% and the ERK8 inhibition (ERK8) was “greater than 80%”. The “ERK8 % activity remaining” value (ERK8) was 6%, the MLK1 inhibition (MLK1) was “greater than 80%” and the “MLK1 % activity remaining” value (MLK1) was 3%. The “IRR % activity remaining” value (IRR) was 20%, the “PDK1 % activity remaining” value (PDK1) was 52% and the “p38b MAPK % activity remaining” value (p38b MAPK) was 91%. For the same compound, the “PKD1 % activity remaining” value (PKD1) was 76%, the “PAK4 % activity remaining” value (PAK4) was 23% and the “SYK % activity remaining” value (SYK) was 37%. For the same compound, the “IRAK4 % activity remaining” value (IRAK4) was 28%, the “JNK3 % activity remaining” value (JNK3) was 18% and the “MNK1 % activity remaining” value (MNK1) was 55%. For the same compound, the “RSK1 % activity remaining” value (RSK1) was 25%.
`Cc1cc(Cn2cc(-c3c(Cl)cnc4[nH]c(-c5cn(C)nc5C)nc34)cn2)no1` [Compound 14d] was tested, and the “IKKe % activity remaining” value (IKKe) was 3%, the “MARK3 % activity remaining” value (MARK3) was 19% and the “PAK2 % activity remaining” value (PAK2) was 102%. The “MST4 % activity remaining” value (MST4) was 56%, the “PRK2 % activity remaining” value (PRK2) was 43% and the “MARK4 % activity remaining” value (MARK4) was 25%. For the same compound, the “PIM2 % activity remaining” value (PIM2) was 91%, the “MLK3 % activity remaining” value (MLK3) was 6% and the “DYRK2 % activity remaining” value (DYRK2) was 34%. The “TAK1 % activity remaining” value (TAK1) was 18%, the “EF2K % activity remaining” value (EF2K) was 102% and the “ROCK 2 % activity remaining” value (ROCK 2) was 44%. The “Lck % activity remaining” value (Lck) was 34%, the “NUAK1 % activity remaining” value (NUAK1) was 8% and the “MAPKAP-K2 % activity remaining” value (MAPKAP-K2) was 100%. For the same compound, the “MST2 % activity remaining” value (MST2) was 80%, the “CDK2-Cyclin A % activity remaining” value (CDK2-Cyclin A) was 1% and the “MKK1 % activity remaining” value (MKK1) was 40%. The “CAMK1 % activity remaining” value (CAMK1) was 77%, the “PIM1 % activity remaining” value (PIM1) was 96% and the “CK1 % activity remaining” value (CK1) was 78%. For the same compound, the “IGF-1R % activity remaining” value (IGF-1R) was 5%, the “YES1 % activity remaining” value (YES1) was 18% and the ERK8 inhibition (ERK8) was no less than 80%. The “ERK8 % activity remaining” value (ERK8) was 1%, the MLK1 inhibition (MLK1) was no less than 80% and the “MLK1 % activity remaining” value (MLK1) was 8%. For the same compound, the “IRR % activity remaining” value (IRR) was 24%, the “PDK1 % activity remaining” value (PDK1) was 49% and the “p38b MAPK % activity remaining” value (p38b MAPK) was 91%. The “PKD1 % activity remaining” value (PKD1) was 97%, the “PAK4 % activity remaining” value (PAK4) was 25% and the “SYK % activity remaining” value (SYK) was 49%. The “IRAK4 % activity remaining” value (IRAK4) was 33%, the “JNK3 % activity remaining” value (JNK3) was 62% and the “MNK1 % activity remaining” value (MNK1) was 64%. The “RSK1 % activity remaining” value (RSK1) was 28%.

Source: publication PMC4577729, “7-(Pyrazol-4-yl)-3H-imidazo[4,5-b]pyridine-based derivatives for kinase inhibition: Co-crystallisation studies with Aurora-A reveal distinct differences in the orientation of the pyrazole N1-substituent” (Bioorganic & Medicinal Chemistry Letters, 2015)
